Experimental findings from PubChem BioAssay (NCI) are described below.

Holding throughout (experiment): NCI tumour cell line growth inhibition, 48 h
The test system of assay [1] is MCF7 breast.
Assay [2] concerns MDA-MB-435.
Assay [3] relates to T-47D breast.
The test system of assay [4] is DU-145 prostate.
For assay [5], the system named is MDA-MB-231 breast.
Assay [6] has as its system BT-549 breast.

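Values below derive from 48-hour exposures of cells grown in 96-well plates, with endpoints linearly interpolated between the two concentrations bracketing the appropriate inhibition level. Here, GI50 denotes the concentration required for 50% inhibition of growth. TGI is the concentration that stops growth completely.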 Where only a bound is given, the exact number is not on record here.

As for `COC(=O)Oc1nn(C(=O)OC)c(=O)c2ccccc12` (tested in a mixture with another compound), the TGI in assay [1], in assay [2], in assay [3], in assay [4] and in assay [5] was over 100 µM throughout.

As for `Nc1nccc(C#Cc2cncnc2Nc2ccc(OCc3cccc(F)c3)c(Cl)c2)n1`, the GI50 was 3990 nM in assay [1]; 5.36 µM in assay [2]; 3.15 µM in assay [6]; 3100 nM in assay [3]; 4.37 µM in assay [4]; 5.56 µM in assay [5]. Further, the TGI in assay [1] is 8.25 µM; in assay [2] it was over 23.8 µM; in assay [6], 9.62 µM; in assay [3], 8.03 µM; in assay [4] it was 7.81 µM; in assay [5], 13.1 µM.

Turning to `CN(C)c1ccc(N=C(C#N)c2nc(N)nc(N3CCOCC3)n2)cc1`, the GI50 in assay [2] is 53.2 µM; in assay [6] it was 35 µM; in assay [3], over 100000 nM; in assay [4], 49.8 µM; in assay [5], 20.7 µM. In addition, the TGI in assay [2] is over 100 µM; in assay [6], over 100 µM; in assay [3], over 100 µM; in assay [4] it was over 100 µM; in assay [5] it was 50.5 µM.

For `CCOC(=O)/C(=C/c1c(-c2ccccc2)[nH]c2ccccc12)C(=O)c1ccc(Cl)cc1`, the GI50 is 2910 nM in assay [1]; 3.02 µM in assay [2]; 8.82 µM in assay [6]; 2270 nM in assay [3]; 5.87 µM in assay [4]; 4.74 µM in assay [5]. For the same compound, the TGI in assay [1] is over 100 µM; in assay [2], over 100 µM; in assay [6] it was over 100 µM; in assay [3], 8.24 µM; in assay [4] it was over 100 µM; in assay [5], over 100 µM.

As to `CC[C@]12C=CCN3CC[C@]4(C(=C(C(=O)OC)C1)Nc1ccccc14)[C@@H]32`, the GI50 is 3330 nM in assay [1]; 2.06 µM in assay [2]; 8.71 µM in assay [6]; 2820 nM in assay [3]; 3.81 µM in assay [4]; 3.19 µM in assay [5]. For the same compound, the TGI was 13.1 µM in assay [1]; 5.63 µM in assay [2]; 21.6 µM in assay [6]; 15.9 µM in assay [3]; 14.5 µM in assay [4]; 13.3 µM in assay [5].

Turning to `COc1ccc(C(NCCNC(c2ccc(OC)c(OC)c2)c2cc3c(cc2O)OCO3)c2cc3c(cc2O)OCO3)cc1OC` (stereo not drawn), the TGI in assay [1] amounted to 3.36 µM; in assay [2], 4.11 µM; in assay [6], 6.22 µM; in assay [3], 13.1 µM; in assay [4] it was 8.51 µM; in assay [5], 8.14 µM.

Turning to `CC(=O)NNc1nc(C)c(C(/C=C/c2ccc3c(c2)OCO3)=N/NC(=O)c2ccncc2)s1`, the TGI in assay [1], in assay [2], in assay [6], in assay [3] and in assay [5] was over 100 µM each time.

As to `Cn1cc(-c2ccc3c(c2)ncn3-c2ccc(CC(=O)Nc3cc(C(C)(C)C)on3)cc2)cn1`, the GI50 in assay [1] is 1550 nM; in assay [2], 2.55 µM; in assay [6], 1.49 µM; in assay [3], 683 nM; in assay [4] it was 1.37 µM; in assay [5], 1.23 µM. The TGI was over 52 µM in assay [1]; over 100 µM in assay [2]; 13.2 µM in assay [6]; 25.5 µM in assay [3]; 9.49 µM in assay [4]; 3.6 µM in assay [5].

Turning to `COc1ccc2c(c1)C(=O)/C(=C/c1ccc(OCC(=O)c3ccc(Cl)cc3)cc1)O2`, the GI50 was 28300 nM in assay [1]; 22.9 µM in assay [2]; 18.4 µM in assay [6]; 10500 nM in assay [3]; 16.4 µM in assay [4]; 17 µM in assay [5]. For the same compound, the TGI in assay [1] was over 100 µM; in assay [2] it was 91.8 µM; in assay [6], 59.1 µM; in assay [3], 35.7 µM; in assay [4] it was 29.9 µM; in assay [5], 89.7 µM.

Consider `CCN(CC)c1ccc(/C=C/C2=[N+](C)c3ccccc3C2(C)C)cc1`, for which the GI50 is 307 nM in assay [1]; 0.288 µM in assay [2]; 0.226 µM in assay [6]; 205 nM in assay [3]; 0.492 µM in assay [4]; 0.701 µM in assay [5]. The TGI worked out at 18.5 µM in assay [1]; 4.91 µM in assay [2]; 1.96 µM in assay [6]; 13.8 µM in assay [3]; 19 µM in assay [4]; 6.48 µM in assay [5].

Turning to `CCN=C(N)CSS(=O)(=O)O`, the TGI in assay [1], in assay [2], in assay [6], in assay [3], in assay [4] and in assay [5] was over 100 µM in each case.

As for `O=C(/C=C/c1cccnc1)/C=C/c1cccnc1`, the GI50 was 379 nM in assay [1]; 1.78 µM in assay [2]; 1.73 µM in assay [6]; 2140 nM in assay [3]; 2.57 µM in assay [4]; 2.05 µM in assay [5]. In addition, the TGI in assay [1] is 1.84 µM; in assay [2], 4.84 µM; in assay [6], 4.62 µM; in assay [3] it was 6.87 µM; in assay [4], 6.45 µM; in assay [5] it was 5.8 µM.

Take `COc1cc(-c2cn(-c3ccc(Cl)cc3)c(=O)n2-c2ccccc2)cc(OC)c1OC`: the GI50 in assay [1] is over 53500 nM; in assay [2], over 100 µM; in assay [6], over 92.1 µM; in assay [3], 21700 nM; in assay [4] it was over 100 µM; in assay [5], 32.9 µM. Also, the TGI in assay [1], in assay [2], in assay [6], in assay [3], in assay [4] and in assay [5] was over 100 µM in each case.
